Results on one molecule are retold here after patent US12427138B2, “Treatment of Meniere's disease” (SOUND PHARMACEUTICALS INCORPORATED, priority 2016, dated 2025).

The test system of data set [1] is adults with Meniere's disease. Nature of the data set: Phase 1b clinical study: pure-tone audiometry (PTA), low frequency hearing. In kind it is in vivo, human. On the procedure:
(§1) The general approach for the investigation of the safety and efficacy of SPI-1005 for Meniere's disease is conducting this phase lb, safety, pharmacokinetic and pharmacodynamic study in 40 adults with Meniere's disease. The study is evaluating escalating doses of SPI-1005 at 200, 400 or 600 mg po BID versus placebo for twenty-one days for impact on pure-tone audiometry, speech discrimination, electrocochleography, and patient-reported outcomes using validated questionnaires for assessing vertigo and tinnitus (Hornibrook, et al., 2012; Meikle, et al., 2011; Yardley, et al., 2004). This study is ongoing and being conducted in compliance with the protocol, Good Clinical Practice (GCP) and the applicable regulatory requirements.
(§2) The effect of SPI-1005 on hearing and vertigo was evaluated at baseline, at the end of 21 days of treatment and 28 days after completing treatment. Tinnitus was evaluated at baseline, weekly during treatment, and 7 and 28 days after treatment. Hearing was evaluated using pure-tone audiometric testing at 0.25, 0.5, 1, 2, 3, 4, 6, and 8 kHz, and speech discrimination using the WINT at 24, 20, 16, 12, 8, 4, and 0 Signal-to-Noise ratio (SNR). The severity of vertigo was assessed using the VSS. The severity of tinnitus was assessed using the TFI. In addition, ECochG was conducted at baseline, at the end of treatment and 28 days after completing treatment in order to measure the pharmacodynamic response.
(§3) Audiological evaluations were performed at specified intervals to evaluate the efficacy of SPI-1005. […] These were scored by study personnel. […]
(§4) Audiometric data were collected in the form of categorical and continuous variables. Categorical data were analyzed using the chi-square distribution. Continuous data were analyzed using mixed-effects multiple-repeated measures, and post-hoc analysis, when necessary, was adjusted using Bonferroni applications. Non-parametric tests included the Mann-Whitney U. Calculated p-values were considered statistically significant at or below an alpha value of 0.05. […]

For data set [2], the system named is adults with Meniere's disease. In words: Phase 1b clinical study: initial analysis of efficacy, secondary endpoints versus placebo. The class given is in vivo, human. Conditions: two analyzed cohorts. On the procedure:
as §1, with “requirements. […]” for “requirements.”
Study participants were been randomized to SPI-1005 or placebo in this double-blind, dose-escalation study to evaluate its safety and preliminary efficacy. Patients, aged 19-70 years, with probable or definite Meniere's disease have undergone baseline testing to have their severity of sensorineural hearing loss, tinnitus and vertigo determined before the start of study treatment (see Table 3: Schedule of Assessments). […]

Data set [3] deals with adults with Meniere's disease. Nature of the data set: Phase 1b clinical study: Tinnitus Functional Index (TFI). The class given is in vivo, human. On the procedure:
(§5) The general approach for the investigation of the safety and efficacy of SPI-1005 for Meniere's disease is conducting this phase lb, safety, pharmacokinetic and pharmacodynamic study in 40 adults with Meniere's disease. The study is evaluating escalating doses of SPI-1005 at 200, 400 or 600 mg po BID versus placebo for twenty-one days for impact on pure-tone audiometry, speech discrimination, electrocochleography, and patient-reported outcomes using validated questionnaires for assessing vertigo and tinnitus (Hornibrook, et al., 2012; Meikle, et al., 2011; Yardley, et al., 2004). […]
(§6) The effect of SPI-1005 on hearing and vertigo was evaluated at baseline, at the end of 21 days of treatment and 28 days after completing treatment. Tinnitus was evaluated at baseline, weekly during treatment, and 7 and 28 days after treatment. Hearing was evaluated using pure-tone audiometric testing at 0.25, 0.5, 1, 2, 3, 4, 6, and 8 kHz, and speech discrimination using the WINT at 24, 20, 16, 12, 8, 4, and 0 Signal-to-Noise ratio (SNR). The severity of vertigo was assessed using the VSS. The severity of tinnitus was assessed using the TFI. […]
as §3

Data set [4] has as its system cochlea following noise- or ototoxin-induced injury. Particulars: preclinical animal studies; cited from earlier work.
Data set [5] concerns adults with Meniere's disease. In words: Phase 1b clinical study: safety and tolerability of SPI-1005. Particulars: first two cohorts (26 of 40 subjects); for safety and tolerability: oral dosing BID for 21 days. The class given is in vivo, human. The procedure: as §1
The safety and tolerability of SPI-1005 is being determined by examining the toxicities and adverse events that are attributable to treatment. […]
Before, during, and for 28 days after administration of SPI-1005, patients were evaluated for safety by history, physical examination, vital signs and blood tests (complete blood count [CBC], Chemistry-20 [Chem-20]). Peak and trough plasma levels of ebselen and its major metabolite were determined using liquid chromatography-mass spectrometry (LCMS) at certain time points. Additionally, plasma was analyzed by High Performance Liquid Chromatography-Inductively Coupled Plasma-Mass Spectrometry (HPLC-ICP-MS) for total selenium at the corresponding time points. Patients were monitored for adverse events at each clinic visit. Female patients received pregnancy testing, and those found to be pregnant were excluded or discontinued from the study and monitored for adverse events. […]
History and physical examinations, vital signs and analysis of lab reports were performed to evaluate the safety of SPI-1005. […] Blood test results were analyzed according to currently established laboratory norms. […]
Blood testing was performed at specified intervals to evaluate the safety of SPI-1005. […] Blood was collected and shipped to a designated CRO(s) to quantify ebselen, ebselen metabolite, and total selenium. […]

The test system of data set [6] is adults with Meniere's disease. Nature of the data set: Phase 1b clinical study: Tinnitus Loudness (TL) visual analogue scale. The class given is in vivo, human. On the procedure:
as §1
Multiple clinical assessments and analysis of auditory and vestibular function • Pure tone audiometry and word recognition scores: Baseline, 21d tx, and 28d post-tx • Hearing loss is typically unilateral and low frequency (0.25, 0.5 and 1 kHz) • Significant hearing improvement ≥10 dB reduction from baseline • Words in noise tests (WINT) 35 words under 7 different SNRs to each ear (0-35) • Significant WINT improvement ≥10% increase from baseline • Tinnitus Functional Index (TFI) : Baseline, and 7d, 14d and 21d tx, and 7d and 28d post-tx • 25 questions answered by patient regarding their tinnitus severity (0-100) • Significant TFI improvement ≥10 pt reduction from baseline • Tinnitus Loudness (TL) answered by patient on a visual analogue scale (0-10) • Significant TL improvement ≥2 pt reduction from baseline • Vertigo Symptom Scale (VSS): Baseline, 21d tx, and 28d post-tx • 15 questions answered by patient regarding their vertigo severity (0-60) • Significant VSS improvement ≥6 pt reduction from baseline

In data set [7] the test system is adults with Meniere's disease. Nature of the data set: Phase 1b clinical study: Vertigo Symptom Scale (VSS). In kind it is in vivo, human. On the procedure:
as §5, §6, §3

The conditions of data set [8]: Noguchi et al., 1992; 1994; cited from earlier work.
The subject of data set [9] is cytochrome-C release from mitochondria. Particulars: during lipid peroxidation; Namura et al., 2001; cited from earlier work.
In data set [10] the test system is adults with Meniere's disease. In words: Phase 1b clinical study: speech discrimination, Words-in-Noise Test (WINT) / word recognition scores. In kind it is in vivo, human. On the procedure:
as §1, §2, §3, §4

The conditions of data set [11]: 25° Celsius; cited from earlier work.

Entries after “also recorded” stand apart in the source; their conditions may differ. A value given as a limit tells only on which side of the number the result lay.

As to `O=c1c2ccccc2[se]n1-c1ccccc1` [ebselen, 2-phenyl-1,2-benzisoselenazol-3(2H)-one], the “highest improvement in low frequency (0.25, 0.5, and 1 kHz) hearing” value in data set [1] (PTA, oral dosing 21 days, first two cohorts) is recorded as not above 35 dB. In addition, the “PTA improvement, actives vs placebos” value in data set [1] (first two cohorts) is “significant and specific to actives vs placebos”. Besides, the “share of actives with significant hearing improvement ≥10 dB” value in [1] (≥10 dB reduction from baseline, no significant improvement in placebos) is given as 60%. Moreover, the “clinical efficacy (hearing, tinnitus, vertigo) versus placebo” value in data set [2] is “achieved several secondary endpoints versus placebo; also recorded: good clinical efficacy”; in data set [2] (listed as Ebselen), “clinically relevant improvements in hearing, tinnitus and vertigo”. Further, the “share of actives with significant TFI improvement ≥10 pt reduction” value in data set [3] (placebo 50%) is 40%. Moreover, in data set [3] (scale 0-100), the “highest improvement in TFI score (reduction)” value was not above 62 pt. The “effect on pathologic changes in the cochlea” value in data set [4] was “prevent or reverse the pathologic changes in the cochlea”. Also, the drug-related adverse events entry in [5] was “no drug-related adverse events have occurred”. The safety and tolerability entry was “safe and well tolerated” in [5]; “well tolerated with no adverse events due to study drug” in [5] (listed as SPI-1005). The “TL improvement, actives vs placebo” value in data set [6] (human, in vivo) is on record as “greater in actives than placebo”. The “share of actives with significant TL improvement ≥2 pt reduction” value in [6] (placebo 33%) turned out to be 70%. Besides, the “highest improvement in tinnitus loudness (reduction)” value in data set [6] (scale 0-10) is reported as not above 8 pt. In addition, the “VSS improvement, actives vs placebo” value in data set [7] (human, in vivo) was “greater in actives than placebo”. The “share of actives with significant VSS improvement ≥6 pt reduction” value in data set [7] (placebo 33%) was 55%. The activity against peroxynitrite result in data set [8] is “strong activity against peroxynitrite”. Besides, the “effect on cytochrome-C release from mitochondria and nuclear damage” value in data set [9] was “reduces cytochrome-C release from mitochondria and nuclear damage”. In addition, the “WINT improvement, actives vs placebos” value in [10] (first two cohorts) is “significant and specific to actives vs placebos”. In addition, the “highest improvement over baseline WRS” value in data set [10] (word recognition scores, oral dosing 21 days) is not above 120%. For the same molecule, in data set [10] (≥10% increase from baseline, no significant improvement in placebos), the “share of actives with significant WINT improvement ≥10% increase” value was determined as 35%. For the same molecule, the “solubility in aqueous solutions” value in data set [11] is “slightly soluble”.
